Laboratory results published in article PMC7560342, “In Vitro and In Vivo Evaluation of the Toxic Effects of Dodecylguanidine Hydrochloride” (Toxics, 2020).
“Also recorded” adds a separate entry of the source.

Key:
[1] = test system: A549 cells; test: Cell membrane damage (LDH leakage) assay; type: cell-based, Human; details: 1–5000 μg/mL, 24 h
Procedure: Human adenocarcinomic alveolar epithelial (A549) cells were obtained from the Korea Cell Line Bank (Seoul, Korea). Cells were grown in RPMI 1640 medium (Thermo Fisher Scientific, Waltham, MA, USA), containing 10% heat-inactivated fetal bovine serum (Thermo Fisher Scientific, Waltham, MA, USA) and 1% penicillin-streptomycin (Thermo Fisher Scientific, Waltham, MA, USA) under standard cell culture conditions (37 °C, 5% CO2, and 90% humidity).
A549 cells (1 × 10^4 cells) were incubated in 96-well plates overnight, and various concentrations (1, 10, 100, 1000, and 5000 μg/mL) of the eight selected chemicals were added to the cell culture medium. After 24 h of incubation, cell morphology was observed by optical microscopy, and cell viability was evaluated using EZ-Cytox kit (DoGenBio, Seoul, Korea) by quantifying purple formazan crystals. The membrane integrity was examined using an EZ-lactate dehydrogenase (LDH) kit (DoGenBio, Seoul, Korea) to measure the LDH level released from the cytosol into the culture medium. Absorbance was measured using a microplate reader (Tecan, Salzburg, Austria) at a wavelength of 450 nm.

[2] = test system: Sprague-Dawley rats; test: Bronchoalveolar lavage fluid (BALF) analysis after acute inhalation; type: in vivo, rat
Procedure: (§1) The inhalation aerosols of the DGH solutions were generated using an atomizer with a clean air flow of 250 L/min. […] In the acute toxicity test, all the rats in each group were sacrificed immediately after exposure. Temperature, humidity, air flow, and air pressure were monitored during the exposure using a Model VT3-X15 environmental controller (Sibata, Saitama, Japan). The concentration of DGH was analyzed by sampling the chamber air using a SIP-32L (Sibata, Saitama, Japan) and measuring the weight of the membranes (T60A20, Φ55). The mass median aerodynamic diameter (MMAD) and geometric standard deviation (GSD) of DGH in the exposure chamber were measured using an Andersen cascade impactor (AN-200, Sibata, Saitama, Japan).
BALF was obtained from the right lung by lavage (twice) with 3 mL phosphate buffered saline (PBS, pH 7.4, magnesium, and calcium free). The BALF samples were centrifuged (1500 rpm, 4 °C, 10 min) and the cell-free supernatant of the first lavage was used for the determination of LDH, total protein, and inflammatory cytokine levels. LDH activity was measured using the EZ-LDH kit (DoGenBio, Seoul, Korea). Total protein content was quantified using a BCA protein assay kit (iNtRON Biotechnology, Seoul, Korea). To evaluate the inflammatory cytokine levels in BALF, tumor necrosis factor-alpha (TNF-α), interleukin-6 (IL-6), interleukin-1 beta (IL-1β), […], and transforming growth factor-beta 1 (TGF-β1) were determined using a Quantikine® enzyme-linked immunosorbent assay kit (R&D Systems, Minneapolis, MN, USA), according to the manufacturer’s instructions. Cells in all lavages were resuspended in PBS, and the total cell count in BALF was quantified using a Vi-Cell® XR analyzer (Beckman Coulter, Brea, CA, USA). Differential cell counts were performed on cytospin preparations (Shadon, Pittsburgh, PA, USA), and the cells were stained with Diff-Quick (Fisher Scientific, Swedesboro, NJ, USA). Polymorphonuclear leukocytes (PMNs) in the BALF were counted using light microscopy (Olympus, Tokyo, Japan).

[3] = test system: Sprague-Dawley rats; test: Acute inhalation study (4 h aerosol exposure); type: in vivo, rat
Procedure: Specific-pathogen-free (SPF) male and female Sprague-Dawley (six-week-old) rats were purchased from Orient Bio Inc. (Sungnam, Korea). The temperature and relative humidity of the animal maintenance room was set to 22 ± 3 °C and 30 to 70%, respectively, with a 12:12 h light/dark cycle. Diet (LabDiet 5053, Orient Bio Inc., Sungnam, Korea) and water were supplied ad libitum. Following an acclimatization period of one week, the rats were randomly divided into four groups (five males and five females per group) for the acute inhalation study. All animal experiments were approved by the Animal Care and Use Committee of the National Institute of Environmental Research, Republic of Korea (identification code: NIER-2019-01-01-011; date of approval: 15 May 2019). The left lung of the rats was used for histopathological analysis and the right lung was used for bronchoalveolar lavage fluid (BALF) analysis, including lung cell damage and pulmonary inflammation.
as §1
Hematology and serum biochemistry of ten rats in each group were analyzed, as described in previous studies. Briefly, blood samples of the animals were drawn from the ventral aorta using a syringe, under anesthesia. The blood samples were collected into CBC bottles containing ethylenediaminetetraacetic acid (EDTA) (K2 EDTA, BD vacutainer) and analyzed within 15 min, using an automatic hematology LC-662G, Kyoto, Japan. The following parameters were determined: white blood cell count, red blood cell count, hemoglobin, hematocrit, mean corpuscular volume, mean corpuscular hemoglobin, mean corpuscular hemoglobin concentration, red blood cell volume distribution width, platelets, mean platelet volume, […], and platelet distribution width. Blood samples were drawn from the ventral aorta using a syringe and collected in a serum vacutainer. The sera were collected by centrifugation at 2000 rpm for 10 min within 2 h after collection and stored at −80 °C in a freezer, prior to analysis. The following serum biochemistry parameters were determined using an automatic serum analyzer (Drichem4000, Fuji Photo Film, Tokyo, Japan): alkaline phosphatase, lactate dehydrogenase (LDH), glucose, total cholesterol, glutamic oxaloacetate transaminase, glutamic pyruvate transaminase, urea nitrogen in blood, calcium, inorganic phosphorus, gamma glutamyl transferase, albumin, total protein, creatinine, total bilirubin, sodium, potassium, and chlorine.

[4] = male rats, exposure groups, 4 h
[5] = rats, 8.6–68 mg/m^3, 4 h, vs control

SMILES: CCCCCCCCCCCCN=C(N)N.Cl [DGH, Dodecylguanidine hydrochloride]
- Cell membrane damage (LDH leakage) [1]: significant dose-dependent damage to the cell membrane
- IL-6 level in BALF compared to control groups [2, 4]: about seven times
- MIP-2 level in BALF compared to control groups [2, 4]: about five times
- Increase of ratio of PMNs in BALF ([2]; male rats, high 68 mg/m^3, 4 h): > 204 fold
- Increase of ratio of PMNs in BALF ([2]; male rats, middle 21.3 mg/m^3, 4 h): more than 38.7 fold
- Cytokines (MIP-2, TGF-β1, IL-1β, TNF-α, IL-6) in BALF ([2]; rats, 8.6–68 mg/m^3, 4 h): increased in a concentration-dependent manner
- LDH in BALF [2, 5]: increased in a concentration-dependent manner; also recorded: significantly increased in all the exposed groups
- PMNs in BALF [2, 5]: increased in a concentration-dependent manner; also recorded: significant increase
- Total protein in BALF [2, 5]: significantly increased in all the exposed groups
- Spleen weight ([3]; male rats, exposed groups, 4 h): significantly decreased; also recorded: decreased significantly
- Body weight vs control ([3]; rats, 8.6–68 mg/m^3, 4 h): no significant changes
- Deaths ([3]; rats, 8.6–68 mg/m^3, 4 h): no deaths occurred; also recorded: no death
- Hematology vs control ([3]; rats, 8.6–68 mg/m^3, 4 h): no significant changes
- Serum biochemistry vs control ([3]; rats, 8.6–68 mg/m^3, 4 h): no significant changes
- LC50 (inhalation) ([3]; rats, exposure for 4 h, estimated): > 68 mg/m^3
